From ChEMBL document CHEMBL5137093, “Improving Drug Delivery While Tailoring Prodrug Activation to Modulate Cmax and Cmin by Optimization of (Carbonyl)oxyalkyl Linker-Based Prodrugs of Atazanavir” (J Med Chem, 2022)
Converted amounts (≈) assume the structure as drawn.

What was measured:
[1] = AUClast in Sprague-Dawley rat at 3 ml/kg,po measured upto 24 hrs by UPLC-MS/MS analysis; type: ADME; design: time < 24 hrs, dose 3 ml/kg, route po; details: in vivo; for AUClast: 24 h
[2] = Aqueous stability of the compound in acetate buffer at pH 4 assessed as compound half life measured after 24 hrs by UPLC analysis; type: physicochemical; details: for half-life: acetate buffer, pH 4; for t1/2: buffer, pH 4, 24 h, 24 h
[3] = Tmax in Sprague-Dawley rat at 3 ml/kg,po measured upto 24 hrs by UPLC-MS/MS analysis; type: ADME; details: in vivo
[4] = Aqueous solubility of compound at pH 6.5 by UPLC analysis; type: physicochemical
[5] = Ratio of AUC of Atazanavir in Sprague-Dawley rat at 3 ml/kg,po measured upto 24 hrs by UPLC-MS/MS analysis; type: ADME; details: in vivo
[6] = Fold ratio of total AUC of Atazanavir in Sprague-Dawley rat at 3 ml/kg,po measured upto 24 hrs by UPLC-MS/MS analysis; type: ADME; details: in vivo
[7] = Relative AUC ratio of Atazanavir in Sprague-Dawley rat at 3 ml/kg,po measured upto 24 hrs by UPLC-MS/MS analysis; type: ADME; details: in vivo
[8] = Aqueous stability of the compound in phosphate buffer at pH 6.5 assessed as compound half life measured after 24 hrs by UPLC analysis; type: physicochemical; details: for t1/2: buffer, pH 6.5, 24 h, 24 h; for half-life: phosphate buffer, pH 6.5
[9] = Aqueous solubility of compound at pH 4 by UPLC analysis; type: physicochemical
[10] = Ratio of Cmax/Cmin of Atazanavir in Sprague-Dawley rat at 3 ml/kg,po measured after 24 hrs by UPLC-MS/MS analysis; type: ADME; details: in vivo
[11] = Aqueous solubility of compound at pH 1 by UPLC analysis; type: physicochemical
[12] = Cmax in Sprague-Dawley rat at 3 ml/kg,po measured upto 24 hrs by UPLC-MS/MS analysis; type: ADME; design: dose 3 ml/kg, time < 24 hrs, route po; details: in vivo
[13] = Aqueous stability of the compound in HCL at pH 1 assessed as compound half life measured after 24 hrs by UPLC analysis; type: physicochemical; details: for half-life: aqueous HCl, pH 1
[14] = Relative Cmax ratio of Atazanavir in Sprague-Dawley rat at 3 ml/kg,po measured upto 24 hrs by UPLC-MS/MS analysis; type: ADME; details: in vivo
[15] = aqueous medium, read-out: solubility

## COC(=O)N[C@H](C(=O)N[C@@H](Cc1ccccc1)[C@H](CN(Cc1ccc(-c2ccccn2)cc1)NC(=O)[C@@H](NC(=O)OC)C(C)(C)C)OC(=O)OC(OC(=O)[C@@H](N)C(C)C)C(C)(C)C)C(C)(C)C (mixture of isomers)
[1]
  AUClast: 1.057 µM·h
[2]
  half-life: > 500 h
[3]; Sprague-Dawley, read-out: Tmax
  Tmax: 0.4 h
[4]; [15]
  solubility: < 1 µg/mL
[5]
  Ratio: 0.26
[6]
  Ratio: 13.2
[7]
  Ratio: 10.4
[8]
  t1/2: 65.4 h
[9]; [15]
  solubility: > 870 µg/mL
[10]
  Ratio: 235.5
[11]; [15]
  solubility: > 800 µg/mL
[12]; 24 h
  Cmax: 670 nM
[13]
  half-life: > 500 h
[14]
  Ratio: 5.8

## COC(=O)N[C@H](C(=O)N[C@@H](Cc1ccccc1)[C@H](CN(Cc1ccc(-c2ccccn2)cc1)NC(=O)[C@@H](NC(=O)OC)C(C)(C)C)OC(=O)OC(OC(=O)[C@@H](N)Cc1ccccc1)C(C)C)C(C)(C)C (stereo in doubt; 3v)
[2]
  half-life: 100 h
[4]; buffer
  solubility: < 1 µg/mL
[5]
  Ratio: 0
[6]
  Ratio: 0.3
[7]
  Ratio: 0.3
[8]
  half-life: 10.7 h
[9]; [15]
  solubility: > 840 µg/mL
[11]; [15]
  solubility: > 1520 µg/mL
[13]
  half-life: 334 h
[14]
  Ratio: 0.5

## COC(=O)N[C@H](C(=O)N[C@@H](Cc1ccccc1)[C@H](CN(Cc1ccc(-c2ccccn2)cc1)NC(=O)[C@@H](NC(=O)OC)C(C)(C)C)OC(=O)OC(OC(=O)[C@@H](N)Cc1ccccc1)C(C)C)C(C)(C)C (stereo in doubt; 3w)
[1]; Sprague-Dawley, 3 ml/kg
  AUC(0-t) at 24 h: 0.018 µM·h
[2]
  t1/2: 158.4 h
[3]; Sprague-Dawley, read-out: Tmax
  Tmax: 0.3 h
[4]; buffer
  solubility: > 890 µg/mL
[5]
  Ratio: 0.01
[6]
  Ratio: 3.8
[7]
  Ratio: 3.7
[8]
  t1/2: 12.7 h
[9]; buffer
  solubility: > 1630 µg/mL
[11]; buffer
  solubility: > 1670 µg/mL
[12]; Sprague-Dawley, 3 ml/kg
  Cmax: 50 nM
[13]; buffer, pH 1, 24 h
  t1/2: 334.3 h
[14]
  Ratio: 7.8

## COC(=O)N[C@H](C(=O)N[C@@H](Cc1ccccc1)[C@H](CN(Cc1ccc(-c2ccccn2)cc1)NC(=O)[C@@H](NC(=O)OC)C(C)(C)C)OC(=O)OC(OC(=O)C1(N)CC1)C(C)C)C(C)(C)C (stereo in doubt; 3x)
[1]
  AUClast: 1.313 µM·h
[2]
  half-life: > 500 h
[3]; Sprague-Dawley, read-out: Tmax
  Tmax: 0.3 h
[4]; buffer
  solubility: < 1.5 µg/mL
[5]
  Ratio: 2.07
[6]
  Ratio: 5.1
[7]
  Ratio: 1.7
[8]
  half-life: > 500 h
[9]; buffer
  solubility: > 950 µg/mL
[11]; [15]
  solubility: > 1200 µg/mL
[12]; Sprague-Dawley, 3 ml/kg
  Cmax: 1260 nM
[13]
  half-life: > 500 h
[14]
  Ratio: 1.4

## COC(=O)N[C@H](C(=O)N[C@@H](Cc1ccccc1)[C@H](CN(Cc1ccc(-c2ccccn2)cc1)NC(=O)[C@@H](NC(=O)OC)C(C)(C)C)OC(=O)OC(OC(=O)C1(N)CC1)C(C)C)C(C)(C)C (stereo in doubt; 3y)
[1]
  AUClast: 4.874 µM·h
[3]; po, 24 h
  Tmax: 0.4 h
[4]; buffer
  solubility: 28 µg/mL (≈ 31 µM)
[5]
  Ratio: 1.34
[6]
  Ratio: 22.2
[7]
  Ratio: 9.5
[9]; buffer
  solubility: > 2100 µg/mL
[10]
  Ratio: 31.8
[11]; buffer
  solubility: > 1800 µg/mL
[12]; 24 h
  Cmax: 835 nM
[14]
  Ratio: 2.1

## COC(=O)N[C@H](C(=O)N[C@@H](Cc1ccccc1)[C@H](CN(Cc1ccc(-c2ccccn2)cc1)NC(=O)[C@@H](NC(=O)OC)C(C)(C)C)OC(=O)OC(OC(=O)[C@@H](N)C(C)C)C1CCCCC1)C(C)(C)C (stereo in doubt; 4n)
[1]
  AUClast: 1.454 µM·h
[2]
  half-life: 334 h
[3]; Sprague-Dawley, read-out: Tmax
  Tmax: 0.5 h
[4]; [15]
  solubility: < 1 µg/mL
[5]
  Ratio: 2.47
[6]
  Ratio: 5.3
[7]
  Ratio: 1.5
[8]
  t1/2: 27.4 h
[9]; [15]
  solubility: > 1400 µg/mL
[11]; [15]
  solubility: > 1300 µg/mL
[12]; 24 h
  Cmax: 991 nM
[13]
  half-life: > 500 h
[14]
  Ratio: 1.3

## COC(=O)N[C@H](C(=O)N[C@@H](Cc1ccccc1)[C@H](CN(Cc1ccc(-c2ccccn2)cc1)NC(=O)[C@@H](NC(=O)OC)C(C)(C)C)OC(=O)OC(OC(=O)[C@H](C(C)C)N(C)C)C(C)C)C(C)(C)C (stereo in doubt; 5g)
[1]
  AUClast: 0.996 µM·h
[2]
  half-life: > 500 h
[3]; Sprague-Dawley, read-out: Tmax
  Tmax: 0.7 h
[4]; [15]
  solubility: < 1 µg/mL
[5]
  Ratio: 0.59
[6]
  Ratio: 7
[7]
  Ratio: 4.4
[8]
  half-life: > 500 h
[9]; [15]
  solubility: 140 µg/mL (≈ 148 µM)
[10]
  Ratio: 194.1
[11]; buffer
  solubility: > 420 µg/mL
[12]; 24 h
  Cmax: 382 nM
[13]
  half-life: > 500 h
[14]
  Ratio: 2.1

## COC(=O)N[C@H](C(=O)N[C@@H](Cc1ccccc1)[C@H](CN(Cc1ccc(-c2ccccn2)cc1)NC(=O)[C@@H](NC(=O)OC)C(C)(C)C)OC(=O)OC(OC(=O)[C@H](N)C(C)C)C(C)C)C(C)(C)C (stereo in doubt; 5i)
[1]
  AUClast: 0.015 µM·h
[2]
  half-life: 376 h
[3]; Sprague-Dawley, read-out: Tmax
  Tmax: 0.4 h
[5]
  Ratio: 0.01
[6]
  Ratio: 5.6
[7]
  Ratio: 5.6
[8]
  half-life: 16.3 h
[9]; [15]
  solubility: > 1800 µg/mL
[10]
  Ratio: 389.4
[11]; [15]
  solubility: > 1300 µg/mL
[12]; 24 h
  Cmax: 19 nM
[13]
  half-life: > 500 h
[14]
  Ratio: 5.3

## COC(=O)N[C@H](C(=O)N[C@@H](Cc1ccccc1)[C@H](CN(Cc1ccc(-c2ccccn2)cc1)NC(=O)[C@@H](NC(=O)OC)C(C)(C)C)OC(=O)OC(OC(=O)[C@@H](NC(=O)[C@@H](N)C(C)C)C(C)C)C(C)C)C(C)(C)C (stereo in doubt; 6e)
[1]
  AUClast: 0.0005 µM·h
[2]
  half-life: > 500 h
[3]; Sprague-Dawley, read-out: Tmax
  Tmax: 0.3 h
[4]; buffer
  solubility: 76 µg/mL (≈ 74.6 µM)
[5]
  Ratio: 0.0004
[6]
  Ratio: 3.3
[7]
  Ratio: 3.3
[8]
  half-life: 167 h
[9]; [15]
  solubility: > 1100 µg/mL
[10]
  Ratio: 2936.7
[11]; [15]
  solubility: > 1600 µg/mL
[12]; 24 h
  Cmax: 3 nM
[13]
  half-life: > 500 h
[14]
  Ratio: 3.3

## COC(=O)N[C@H](C(=O)N[C@@H](Cc1ccccc1)[C@H](CN(Cc1ccc(-c2ccccn2)cc1)NC(=O)[C@@H](NC(=O)OC)C(C)(C)C)OC(=O)OC(OC(=O)[C@@H](NC(=O)[C@@H](N)C(C)C)C(C)C)C(C)C)C(C)(C)C (stereo in doubt; 6f)
[1]
  AUClast: 0.208 µM·h
[2]
  t1/2: 376.3 h
[4]; buffer
  solubility: 8 µg/mL (≈ 7.85 µM)
[5]
  Ratio: 0.15
[6]
  Ratio: 4.2
[7]
  Ratio: 3.7
[8]
  t1/2: 94 h
[9]; buffer
  solubility: > 1400 µg/mL
[10]
  Ratio: 1414
[11]; buffer
  solubility: > 1000 µg/mL
[12]; 24 h
  Cmax: 235 nM
[14]
  Ratio: 2.7
